A value given as a limit tells only on which side of the number the result lay.

The results in this text go back to patent US20200369626A1 (Washington University, priority 2019, published 2020).

In the first experiment the target is T1, S1PR2 (Homo sapiens, UniProt O95136).
T1 construct: purchased
T1 sequence (O95136 whole entry): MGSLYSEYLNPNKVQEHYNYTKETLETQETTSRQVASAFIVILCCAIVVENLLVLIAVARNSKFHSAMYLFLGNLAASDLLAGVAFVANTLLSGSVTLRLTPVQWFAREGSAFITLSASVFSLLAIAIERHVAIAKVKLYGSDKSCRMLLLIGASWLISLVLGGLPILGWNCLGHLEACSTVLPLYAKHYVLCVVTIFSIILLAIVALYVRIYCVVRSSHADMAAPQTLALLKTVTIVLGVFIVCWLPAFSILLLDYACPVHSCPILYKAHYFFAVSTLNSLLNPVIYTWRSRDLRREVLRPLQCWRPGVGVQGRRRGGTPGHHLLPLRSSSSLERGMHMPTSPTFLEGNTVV
Briefly: competitive [^32P]S1P binding assay on cell membranes, S1PR2. The settings on record: Table 5; read-out: IC50 S1PR2.
Method: The test compounds were dissolved in DMSO and diluted into test samples with increasing concentrations with assay buffer. Commercial cell membranes expressing recombinant human S1PR were diluted with assay buffer to make a 20-40 μg/mL of solution. […] The plate was incubated for 60 min at room temperature with shaking and terminated by collecting the membranes onto 96-well glass fiber (GF/B) filtration plates (Millipore, Billerica, Mass.). Each filter was washed with 200 μL of assay buffer for a total of five washes. […] The IC50 values were fitted from GraphPad Prism 6 using one site Nonlinear Regression.
The term IC50 denotes the concentration that gives 50% inhibition. As to `COc1cc(OC)c(NC(=O)CN2C(=O)N(CC(=O)O)Cc3ccccc32)cc1Cl` [TZ62-017], the IC50 was more than 1000 nM. In the case of `CC(C)CC1(O)CN(C(=O)Nc2cc(Oc3ccc(F)cc3)cc(Oc3ccc(S(C)(=O)=O)cc3)c2)C1` [TZ57-119], the IC50 is more than 1000 nM. As for `CCC(CC)CC1(O)CCN(C(=O)Nc2cc(Oc3ccc(F)cc3)cc(OC3CCN(S(C)(=O)=O)CC3)c2)CC1` [TZ57-081], the IC50 worked out at 292 ± 121 nM. As to `CCC(CC)CC1(O)CCN(C(=O)Nc2cc(OCCCF)cc(Oc3ccc(F)cc3)c2)CC1` [TZ51-139], the IC50 was more than 1000 nM. The same measure, in the same setting: the figure for `CCOc1ccc(C(=O)Cn2c(=O)n(CCCC(=O)NC3CCCC3)c(=O)c3cc(Cl)ccc32)cc1Cl` [TZ62-038] is 293 ± 69 nM; for `CCC(CC)CC1(O)CCN(C(=O)Nc2cc(C(=O)c3ccc(C(=O)NC)cc3)cc(C(F)(F)F)c2)CC1` [TZ59-089] it is more than 1000 nM. With `CCC(CC)CC1(O)CCN(C(=O)Nc2cc(Oc3ccc(S(C)(=O)=O)cc3)cc(Oc3ccc(F)nc3)c2)CC1` [TZ57-041], the IC50 was found to be 198 ± 45 nM. Turning to `CCC(CC)CC1(O)CCN(C(=O)Nc2cc(Sc3ccc(F)cc3)cc(Sc3ccc(S(C)(=O)=O)cc3)c2)CC1` [TZ57-158], the IC50 is 67 ± 10 nM.

As for `COc1cc(OC)c(NC(=O)Cn2c(=O)n(CC(=O)Nc3ccc(O)cc3)c(=O)c3ccccc32)cc1Cl` [TZ59-124, N-(5-Chloro-2,4-dimethoxyphenyl)-2-(3-(2-((4-hydroxyphenyl)amino)-2-oxoethyl)-2,4-dioxo-3,4-dihydroquinazolin-1(2H)-yl)acetamide], the IC50 stood at 2.6 ± 0.3 nM.

With `COc1ccc(C(=O)Cn2c(=O)n(CC(=O)Nc3ccccc3OC)c(=O)c3ccccc32)cc1` [TZ62-019], the IC50 is more than 1000 nM. Take `CC(C)CC1(O)CCN(C(=O)Nc2cc(Oc3ccc(C(=O)O)cc3)cc(C(F)(F)F)c2)CC1` [TZ51-073]: the IC50 was more than 1000 nM. Turning to `COc1ccc2c(c1)c(=O)c1ccccc1n2CC(=O)Nc1cc(Cl)c(OC)cc1OC` [TZ65-032], the concentration for half-maximal inhibition (IC50) was more than 1000 nM.

Take `CC(C)CC1(O)CCN(C(=O)Nc2cc(Oc3ccc(F)cc3)cc(Oc3ccc(S(C)(=O)=O)cc3)c2)C1` (stereo not drawn) [TZ57-120]: the IC50 was found to be 122 ± 29 nM. For the compound `CC(C)CC1(O)CCN(C(=O)Nc2ccc(NC(=O)N3CCC(O)(CC(C)C)CC3)cc2)CC1` [TZ57-112], the IC50 was more than 1000 nM. `CCC(CC)CC1(O)CCN(C(=O)Nc2cc(Nc3ccc(S(C)(=O)=O)cc3)cc(C(F)(F)F)c2)CC1` [TZ59-062]: the IC50 was more than 1000 nM. On to `COc1ccc(C(=O)Cn2c(=O)n(CCCC(=O)N3CCCC3)c(=O)c3cc(Cl)ccc32)cc1Cl` [TZ62-053], for which the IC50 was more than 1000 nM.

Turning to `CNC(=O)c1ccc(Oc2cc(NC(=O)N3CCC(C)(O)CC3)cc(C(F)(F)F)c2)cc1` [TZ51-057], the IC50 is more than 1000 nM.

Turning to `CS(=O)(=O)c1ccc(Oc2cc(NC(=O)N3CC[C@@]4(O)CCCC[C@H]4C3)cc(Oc3ccc(F)cc3)c2)cc1` [TZ57-091], the IC50 was more than 1000 nM. Consider `CCC(CC)CC1(O)CCN(C(=O)Nc2cc(Oc3ccc(F)cc3)cc(-n3cccn3)c2)CC1` [TZ57-016], for which the IC50 is more than 1000 nM. Turning to `CCC(CC)CC1(O)CCN(C(=O)Nc2cc(OC)cc(C(F)(F)F)c2)CC1` [TZ59-046], the IC50 is more than 1000 nM.

As for `COc1ccc(-n2c(=O)c3ccccc3n(CC(=O)Nc3cc(Cl)c(OC)cc3OC)c2=O)cc1` [TZ59-110], the IC50 was more than 1000 nM. Consider `CC(C)CC1(O)CCN(c2nc3cc(Oc4ccc(F)cc4)cc([N+](=O)[O-])c3o2)CC1` [TZ57-045], for which the IC50 was more than 1000 nM. Still for that read-out and setting: the figure for `COc1ccc(C(=O)Cn2c(=O)n(CCCC(=O)NC3CCCC3)c(=O)c3ccccc32)cc1Cl` [TZ62-049] is 396 ± 78 nM; for `CCC(CC)CC1(O)CCN(C(=O)Nc2cc(Oc3ccc(C(=O)NC)cc3)cc(C(F)(F)F)c2)CC1` [TZ51-018] it is more than 1000 nM.

Turning to `COc1cc(OC)c(NC(=O)Cn2c(=O)n(CCN3CCOCC3)c(=O)c3ccccc32)cc1Cl` [TZ62-102], the IC50 was more than 1000 nM. As to `CC(C)C1(O)CCN(C(=O)Nc2cc(Oc3ccc(S(C)(=O)=O)cc3)cc(C(F)(F)F)c2)CC1` [TZ51-045], the IC50 was more than 1000 nM. Regarding `CNC(=O)c1ccc(Oc2cc(NC(=O)N3CCC(O)CC3)cc(C(F)(F)F)c2)cc1` [TZ51-041], the IC50 was more than 1000 nM.

Take `CCC(CC)CC1(O)CCN(C(=O)Nc2cc(C(=O)c3ccc(S(C)(=O)=O)cc3)cc(C(F)(F)F)c2)CC1` [TZ59-093]: the IC50 is more than 1000 nM. Regarding `COc1cc(OC)c(NC(=O)Cn2c(=O)n(CC(=O)NCCO)c(=O)c3ccccc32)cc1Cl` [TZ59-130, N-(5-Chloro-2,4-dimethoxyphenyl)-2-(3-(2-((2-hydroxyethyl)amino)-2-oxoethyl)-2,4-dioxo-3,4-dihydroquinazolin-1(2H)-yl)acetamide], the IC50 was 66.6 ± 10.3 nM. `CCOc1ccc(C(=O)Cn2c(=O)n(CC)c(=O)c3ccccc32)cc1Cl` [TZ62-099]: the IC50 is more than 1000 nM. As to `CCC(CC)CC1(OC)CCN(C(=O)Nc2cc(Oc3ccc(F)cc3)cc(Oc3ccc(S(C)(=O)=O)cc3)c2)CC1` [TZ57-054], the IC50 is more than 1000 nM. Regarding `CC(C)CC1(O)CCN(C(=O)Nc2cc(Oc3ccc(C(=O)N(C)C)cc3)cc(C(F)(F)F)c2)CC1` [TZ51-095], the IC50 is more than 1000 nM. As to `COc1cc(OC)c(NC(=O)Cn2c(=O)n(CC(=O)Nc3ccc(I)cc3)c(=O)c3ccccc32)cc1Cl` [TZ65-033], the IC50 is 16.9 ± 5.6 nM. With `CC(C)C(=O)C1CCN(C(=O)Nc2cc(Oc3ccc(F)cc3)cc(Oc3ccc(S(C)(=O)=O)cc3)c2)CC1` [TZ57-063], the IC50 is more than 1000 nM. Consider `CS(=O)(=O)c1ccc(Oc2cc(NC(=O)N(CCO)C3CCCCC3)cc(Oc3ccc(F)cc3)c2)cc1` [TZ57-062], for which the IC50 was more than 1000 nM. On the same count and under the same terms, the figure for `CCC(CC)CC1(O)CCN(C(=O)Nc2nc(Oc3ccc(F)cc3)cc(Oc3ccc(F)cc3)n2)CC1` [TZ57-007] is more than 1000 nM; for `CCC(CC)CC1(O)CCN(C(=O)Nc2cc(NC(=O)N3CCC(O)(CC(CC)CC)CC3)cc(C(F)(F)F)c2)CC1` [TZ59-039] it is more than 1000 nM. As for `COc1ccccc1NC(=O)Cn1c(=O)c2ccccc2n(CC(=O)c2ccccc2OC)c1=O` [TZ62-020], the IC50 is more than 1000 nM. With `COc1cc(OC)c(NC(=O)Cn2c(=O)n(CC(=O)NCCO)c(=O)c3ccccc32)cc1Cl` [TZ62-007], the IC50 is more than 1000 nM.

On to `CCOc1ccc(C(=O)Cn2c(=O)n(C)c(=O)c3ccccc32)cc1Cl` [TZ62-098], for which the IC50 is more than 1000 nM. Consider `COc1cc(OC)c(NC(=O)Cn2c(=O)n(CC(=O)Nc3cc(Cl)nc(Cl)c3)c(=O)c3ccccc32)cc1Cl` [TZ59-112, N-(5-Chloro-2,4-dimethoxyphenyl)-2-(3-(2-((2,6-dichloropyridin-4-yl)amino)-2-oxoethyl)-2,4-dioxo-3,4-dihydroquinazolin-1(2H)-yl)acetamide], for which the IC50 was more than 1000 nM. Take `COc1ccc(C(=O)Cn2c(=O)n(CC(=O)Nc3ccccc3OC)c(=O)c3ccccc32)cc1Cl` [TZ62-026]: the IC50 came to 287 ± 69 nM. As to `CCC(CC)CC1(O)CCN(C(=O)Nc2cc(Oc3ccc(F)cc3)cc(OC3CCN(C(C)=O)CC3)c2)CC1` [TZ57-080], the IC50 was more than 1000 nM. With `COc1ccc(NC(=O)c2cn(CC(=O)Nc3cc(Cl)c(OC)cc3OC)c3ccccc3c2=O)cc1` [TZ62-125], the IC50 was more than 1000 nM.

Still in this experiment, the particulars now being: [^32P]S1P competition, IC50 ± SD, Table 1 (2a-l, 4a-h); read-out: IC50 (binding potency toward S1PR2).
As to `COc1cc(OC)c(NC(=O)Cn2c(=O)n(CC(=O)Nc3cc(Cl)nc(Cl)c3)c(=O)c3ccccc32)cc1Cl` [Compound 2g], the IC50 is more than 1000 nM.

With `COc1cc(OC)c(NC(=O)Cn2c(=O)n(CC(=O)NCCOCCO)c(=O)c3ccccc32)cc1Cl` [Compound 2i], the IC50 was found to be 91.4 ± 17.6 nM. As to `COc1cccc(NC(=O)Cn2c(=O)c3ccccc3n(CC(=O)Nc3cc(Cl)c(OC)cc3OC)c2=O)c1` [Compound 2b], the IC50 was 39.1 ± 7 nM.

The experiment is the same for the next values; noted with them: [^32P]S1P competition, IC50 ± SD, second Table 1; read-out: S2PR2 IC50.
As for `CCC1(O)CCN(C(=O)Nc2cc(Oc3ccc(S(C)(=O)=O)cc3)cc(C(F)(F)F)c2)CC1` [Compound 25d, 4-Ethyl-4-hydroxy-N-(3-(4-(methylsulfonyl)phenoxy)-5-(trifluoromethyl)phenyl)piperidine-1-carboxamide], the IC50 was more than 1000 nM. With `CCC(CC)CC1(O)CCN(C(=O)Nc2cc(OCCCF)cc(Oc3ccc(F)cc3)c2)CC1` [Compound 11b, 4-(2-Ethylbutyl)-N-(3-(4-fluorophenoxy)-5-(3-fluoropropoxy)phenyl)-4-hydroxypiperidine-1-carboxamide], the IC50 was more than 1000 nM. For `CC(C)C1(O)CCN(C(=O)Nc2cc(Oc3ccc(S(C)(=O)=O)cc3)cc(C(F)(F)F)c2)CC1` [Compound 25f, 4-Hydroxy-4-isopropyl-N-(3-(4-(methylsulfonyl)phenoxy)-5-(trifluoromethyl)phenyl)piperidine-1-carboxamide], the IC50 was more than 1000 nM. `CNC(=O)c1ccc(Oc2cc(NC(=O)N3CC(O)(CC(C)C)C3)cc(C(F)(F)F)c2)cc1` [Compound 25i, 3-Hydroxy-3-isobutyl-N-(3-(4-(methylcarbamoyl)phenoxy)-5-(trifluoromethyl)phenyl)azetidine-1-carboxamide]: the IC50 is more than 1000 nM. Same read-out and setting: the figure for `CCC(CC)CC1(O)CCN(C(=O)Nc2cc(Oc3ccc(F)cc3)cc(N3CCN(C)CC3)c2)CC1` [Compound 17a, 4-(2-Ethylbutyl)-N-(3-(4-fluorophenoxy)-5-(4-methylpiperazin-1-yl)phenyl)-4-hydroxypiperidine-1-carboxamide] is more than 1000 nM; for `CCC(CC)CC1(O)CCN(C(=O)Nc2cc(Oc3ccc(F)cc3)cc(-n3cccn3)c2)CC1` [Compound 17b, 4-(2-Ethylbutyl)-N-(3-(4-fluorophenoxy)-5-(1H-pyrazol-1-yl)phenyl)-4-hydroxypiperidine-1-carboxamide] it is more than 1000 nM. For `CCC(CC)CC1(O)CCN(C(=O)Nc2cc(OCCF)cc(Oc3ccc(F)cc3)c2)CC1` [Compound 11a, 4-(2-Ethylbutyl)-N-(3-(2-fluoroethoxy)-5-(4-fluorophenoxy)phenyl)-4-hydroxypiperidine-1-carboxamide], the IC50 is more than 1000 nM.

The same experiment, now with this note: [^32P]S1P competition; read-out: IC50 value, S1PR2 binding.
Consider `CCC(CC)CC1(O)CCN(C(=O)Nc2cc(OCCCF)cc(Oc3ccc(F)cc3)c2)CC1` [Compound 11b, 4-(2-Ethylbutyl)-N-(3-(4-fluorophenoxy)-5-(3-fluoropropoxy)phenyl)-4-hydroxypiperidine-1-carboxamide], for which the IC50 was more than 1000 nM. The same measure, in the same setting: the figure for `CNC(=O)c1ccc(Oc2cc(NC(=O)N3CC(O)(CC(C)C)C3)cc(C(F)(F)F)c2)cc1` [Compound 25i, 3-Hydroxy-3-isobutyl-N-(3-(4-(methylcarbamoyl)phenoxy)-5-(trifluoromethyl)phenyl)azetidine-1-carboxamide] is more than 1000 nM; for `CCC(CC)CC1(O)CCN(C(=O)Nc2cc(OCCF)cc(Oc3ccc(F)cc3)c2)CC1` [Compound 11a, 4-(2-Ethylbutyl)-N-(3-(2-fluoroethoxy)-5-(4-fluorophenoxy)phenyl)-4-hydroxypiperidine-1-carboxamide] it is more than 1000 nM.
